# Results published in ChEMBL document CHEMBL1201862, “PubChem BioAssay data set” (2004).
# Active and inactive are the calls of the source.
# Tests used:
# [1] = target: T1, Kappa-type opioid receptor (Homo sapiens, UniProt P41145); test: kappa opioid receptor activation potency – imaging, image-based, SAR follow-up (AID 2359); type: functional
# [2] = target: T1, Kappa-type opioid receptor; test: kappa opioid receptor blockers, image-based, SAR follow-up (AID 2348); type: functional
# [3] = target: T1, Kappa-type opioid receptor; test: SAR analysis of small molecule agonists of the kappa opioid receptor via a luminescent beta-arrestin assay. [Related pubchem assays (depositor defined):AID1777, AID1786, AID1966, AID2133, AID2136, AID2348, AID2352, AID2357, AID2359, AID2370, AID2420, AID2478, AID2491, AID2492, AID2493, AID2497, AID2498, AID2500, AID449737, AID488822, AID488842]; type: functional
# [4] = target: T2, Delta-type opioid receptor (Homo sapiens, UniProt P41143); test: delta opioid receptor blockers – image-based, SAR follow-up (AID 2357); type: functional
# Mu-type opioid receptor [5] = target: T3, Mu-type opioid receptor (Homo sapiens, UniProt P35372); test: mu opioid receptor blockers – image-based, SAR follow-up (AID 2420); type: functional;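 further: compounds added before stimulation of receptor with agonist DAMGO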
# Mu-type opioid receptor [6] = target: T3, Mu-type opioid receptor; test: mu opioid receptor activators, image-based, SAR follow-up (AID 2352); type: functional
# [7] = target: T2, Delta-type opioid receptor; test: DOR agonists, SAR follow-up, image-based (AID 2370); type: functional
# [8] = general cell-killing toxicity readout – plate reader, dry powder samples, cytotoxicity control for PAX8 inhibitor project, dose response (AID 743021); type: functional, cell-based
# Melanocortin receptor 4 = Melanocortin receptor 4 (Homo sapiens, UniProt P32245); type: functional, cell-based;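 further: Cell-based assay with luminescence read-out, confirmatory dose-response testing for agonist activity of biased ligands at MC4R; human U2OS cells with tagged receptor and beta-arrestin; potency of agonists that increase receptor coupling to beta-arrestin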
# Paired box protein Pax-8 = Paired box protein Pax-8 (Homo sapiens, UniProt Q06710); test: PAX8 transcriptional activity inhibition in RMG-I – RMG-I cells, luciferase, cherry-pick, dose response (AID 687027); type: functional, cell-based;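 further: luciferase reporter driven by Pax8 target thyroperoxidase promoter measured by SteadyGlo luminescence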
# [9] = target: G-protein coupled receptor 35 (Homo sapiens, UniProt Q9HC97); test: SAR Analysis for the identification of Selective Antagonists of ERK1/2 Activity in GPR35-Overexpressing U2OS Cells. [Related pubchem assays: 2079, 2058 ]; type: functional, cell-based
# [10] = target: G-protein coupled receptor 55 (Homo sapiens, UniProt Q9Y2T6); test: blockers of GPR55 signalling, imaged – imaging, image-based, counter-screen for GPR35 antagonist project, SAR follow-up (AID 2397); type: functional
# [11] = target: T4, Tyrosine-protein phosphatase non-receptor type 22 (Homo sapiens, UniProt Q9Y2R2); test: lymphoid phosphatase LYP inhibitors – biochemical, selectivity assay for STEP inhibitor project, dose response (AID 624241); type: functional
# T4 sequence (Q9Y2R2 whole entry): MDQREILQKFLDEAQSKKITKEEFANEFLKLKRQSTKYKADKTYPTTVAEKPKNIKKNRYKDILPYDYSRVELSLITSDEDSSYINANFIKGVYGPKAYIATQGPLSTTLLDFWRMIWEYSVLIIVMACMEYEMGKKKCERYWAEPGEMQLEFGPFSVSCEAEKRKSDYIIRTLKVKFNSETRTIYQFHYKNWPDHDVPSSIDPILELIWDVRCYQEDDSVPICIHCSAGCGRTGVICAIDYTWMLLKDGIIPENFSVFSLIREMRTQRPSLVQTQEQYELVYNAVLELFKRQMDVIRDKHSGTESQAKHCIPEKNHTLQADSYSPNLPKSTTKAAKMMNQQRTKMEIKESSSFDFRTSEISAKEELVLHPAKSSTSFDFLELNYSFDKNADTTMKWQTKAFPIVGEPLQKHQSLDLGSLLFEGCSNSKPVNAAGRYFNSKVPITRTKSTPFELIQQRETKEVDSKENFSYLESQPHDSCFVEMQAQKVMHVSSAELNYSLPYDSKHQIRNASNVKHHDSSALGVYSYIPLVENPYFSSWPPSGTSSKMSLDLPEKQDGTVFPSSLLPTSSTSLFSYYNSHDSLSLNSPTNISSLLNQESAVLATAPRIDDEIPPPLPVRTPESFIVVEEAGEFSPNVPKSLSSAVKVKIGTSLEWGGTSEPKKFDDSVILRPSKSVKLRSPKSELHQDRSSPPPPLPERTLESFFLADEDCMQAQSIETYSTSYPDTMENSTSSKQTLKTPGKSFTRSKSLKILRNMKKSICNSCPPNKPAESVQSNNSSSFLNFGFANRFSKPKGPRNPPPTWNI
# [12] = target: T5, Tyrosine-protein phosphatase non-receptor type 5 (Homo sapiens, UniProt P54829); test: PTPN5 enzyme inhibition – biochemical, fluorescence intensity, uHTS hits, confirmation (AID 602372); type: functional; conditions: read-out: IC50_Mean
# T5 sequence (P54829 whole entry): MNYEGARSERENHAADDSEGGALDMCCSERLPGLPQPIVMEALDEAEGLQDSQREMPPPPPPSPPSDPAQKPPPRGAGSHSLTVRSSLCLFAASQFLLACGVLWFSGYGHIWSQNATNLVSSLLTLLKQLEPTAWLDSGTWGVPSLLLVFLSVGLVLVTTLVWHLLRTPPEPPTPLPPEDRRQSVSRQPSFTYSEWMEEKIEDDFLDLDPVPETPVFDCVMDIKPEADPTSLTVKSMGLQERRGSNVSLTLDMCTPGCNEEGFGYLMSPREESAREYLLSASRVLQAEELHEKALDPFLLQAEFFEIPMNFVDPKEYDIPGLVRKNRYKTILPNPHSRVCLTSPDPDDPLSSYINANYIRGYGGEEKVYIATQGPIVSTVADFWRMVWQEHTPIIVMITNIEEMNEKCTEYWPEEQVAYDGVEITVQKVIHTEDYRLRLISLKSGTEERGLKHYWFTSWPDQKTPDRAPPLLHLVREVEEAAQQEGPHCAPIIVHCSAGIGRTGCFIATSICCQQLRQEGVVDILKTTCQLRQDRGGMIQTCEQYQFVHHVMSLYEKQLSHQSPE
# [13] = target: T4, Tyrosine-protein phosphatase non-receptor type 22; type: functional
# [14] = target: T4, Tyrosine-protein phosphatase non-receptor type 22; type: functional; remark: listed apart in the source
# [15] = target: T4, Tyrosine-protein phosphatase non-receptor type 22; test: PTPN22 enzyme inhibitors – biochemical, fluorescence, LYP catalytic domain, selectivity assay for LMPTP inhibitor project, dose response (AID 652006); type: functional; conditions: read-out: IC50_Mean
# [16] = target: T6, Low molecular weight phosphotyrosine protein phosphatase (Homo sapiens, UniProt P24666); type: functional; conditions: read-out: IC50_Mean
# T6 sequence (P24666 whole entry): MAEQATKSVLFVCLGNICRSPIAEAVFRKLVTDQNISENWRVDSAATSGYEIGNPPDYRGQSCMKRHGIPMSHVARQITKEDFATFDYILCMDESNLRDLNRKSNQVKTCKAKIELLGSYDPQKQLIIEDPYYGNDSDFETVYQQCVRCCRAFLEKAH
# [17] = target: T6, Low molecular weight phosphotyrosine protein phosphatase; type: functional; conditions: read-out: IC50_Mean; remark: listed apart in the source
# [18] = target: T7, Tyrosine-protein phosphatase non-receptor type 7 (Homo sapiens, UniProt P35236); type: functional
# T7 sequence (P35236 whole entry): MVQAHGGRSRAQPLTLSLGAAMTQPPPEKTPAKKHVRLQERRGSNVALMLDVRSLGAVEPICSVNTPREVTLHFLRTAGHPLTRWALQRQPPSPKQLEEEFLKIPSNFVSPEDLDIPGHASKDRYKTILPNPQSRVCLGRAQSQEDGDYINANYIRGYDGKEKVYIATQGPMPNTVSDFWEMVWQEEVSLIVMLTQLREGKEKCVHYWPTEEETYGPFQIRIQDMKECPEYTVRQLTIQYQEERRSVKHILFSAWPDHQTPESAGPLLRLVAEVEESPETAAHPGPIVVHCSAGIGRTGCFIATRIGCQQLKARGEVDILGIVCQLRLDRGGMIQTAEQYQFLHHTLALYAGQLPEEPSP
# [19] = target: Dual specificity protein phosphatase 3 (Homo sapiens, UniProt P51452); test: VHR phosphatase inhibition, dose response, selectivity assay for STEP inhibitor project, biochemical (AID 602374); type: functional; conditions: read-out: IC50_Mean
# [20] = target: T8, Carboxy-terminal domain RNA polymerase II polypeptide A small phosphatase 1 (Homo sapiens, UniProt Q9GZU7); test: CTDSP1 inhibitors, concentration-response, biochemical, absorbance readout, ultra-high-throughput screen actives (AID 540297); type: functional
# T8 sequence (Q9GZU7 whole entry): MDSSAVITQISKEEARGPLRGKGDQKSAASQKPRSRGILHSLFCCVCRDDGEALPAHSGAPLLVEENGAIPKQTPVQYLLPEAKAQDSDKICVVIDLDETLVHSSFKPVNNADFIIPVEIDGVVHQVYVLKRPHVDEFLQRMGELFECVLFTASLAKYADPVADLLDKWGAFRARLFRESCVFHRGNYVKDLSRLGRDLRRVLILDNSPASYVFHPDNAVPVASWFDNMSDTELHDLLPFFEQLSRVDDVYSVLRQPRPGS
# [21] = target: T9, Tyrosine-protein phosphatase non-receptor type 11 (Homo sapiens, UniProt Q06124); test: PTPN11 enzyme inhibitors – biochemical, selectivity assay for STEP inhibitor project, dose response (AID 602367); type: functional; conditions: read-out: IC50_Mean
# T9 sequence (Q06124 whole entry): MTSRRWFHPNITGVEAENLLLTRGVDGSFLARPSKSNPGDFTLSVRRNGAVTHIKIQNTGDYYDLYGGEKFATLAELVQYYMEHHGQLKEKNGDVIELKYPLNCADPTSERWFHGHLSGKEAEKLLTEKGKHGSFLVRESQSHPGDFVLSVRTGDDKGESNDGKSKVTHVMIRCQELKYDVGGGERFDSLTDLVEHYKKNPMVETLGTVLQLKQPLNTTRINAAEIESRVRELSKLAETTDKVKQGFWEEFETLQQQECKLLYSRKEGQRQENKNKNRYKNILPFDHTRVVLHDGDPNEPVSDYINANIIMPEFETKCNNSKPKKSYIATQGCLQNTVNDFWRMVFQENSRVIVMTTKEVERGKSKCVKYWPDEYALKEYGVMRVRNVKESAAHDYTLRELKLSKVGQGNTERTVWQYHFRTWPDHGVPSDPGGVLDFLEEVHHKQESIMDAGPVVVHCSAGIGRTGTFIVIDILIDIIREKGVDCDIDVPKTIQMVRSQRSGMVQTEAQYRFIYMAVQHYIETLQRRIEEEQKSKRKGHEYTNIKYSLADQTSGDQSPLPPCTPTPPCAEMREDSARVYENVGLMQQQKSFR
# [22] = target: T1, Kappa-type opioid receptor; test: SAR analysis of small molecule agonists of the kappa opioid receptor via a luminescent beta-arrestin assay - Set 3. [Related pubchem assays (depositor defined):AID1777, AID1785, AID1786, AID1966, AID2133, AID2136, AID2284, AID2500]; type: functional
# [23] = target: T2, Delta-type opioid receptor; test: HTS Image-Based Screen for Agonists of the DOR Receptor. [Related pubchem assays (depositor defined):AID1777, AID1786, AID2133]; type: functional
# [24] = target: T1, Kappa-type opioid receptor; type: functional
# Mu-type opioid receptor [25] = target: T3, Mu-type opioid receptor; test: HTS Image-Based Screen for Agonists of the MOR Receptor. [Related pubchem assays (depositor defined):AID1777, AID1785, AID1786, AID2133]; type: functional
# [26] = target: T1, Kappa-type opioid receptor; type: functional; remark: listed apart in the source
# [27] = target: T2, Delta-type opioid receptor; test: HTS Image-Based Screen for Antagonists of the DOR Receptor. [Related pubchem assays (depositor defined):AID1777, AID1785, AID1786, AID2133]; type: functional
# Beta-galactosidase = Beta-galactosidase (Escherichia coli, UniProt Q8VNN2); type: functional
# Vero = test: cells; type: functional; conditions: Chlorocebus sabaeus
# [28] = target: Microphthalmia-associated transcription factor (Homo sapiens, UniProt O75030); test: reducers of TRPM1 reporter luminescence, concentration series – cell-based, SK-MEL-5, cherry-picked, set 3, MITF inhibitor project, dose response (AID 493073); type: functional;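 further: SK-MEL-5 melanoma cells with luciferase driven by the MITF target TRPM1 promoter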
# Sequence of Microphthalmia-associated transcription factor (O75030 whole entry): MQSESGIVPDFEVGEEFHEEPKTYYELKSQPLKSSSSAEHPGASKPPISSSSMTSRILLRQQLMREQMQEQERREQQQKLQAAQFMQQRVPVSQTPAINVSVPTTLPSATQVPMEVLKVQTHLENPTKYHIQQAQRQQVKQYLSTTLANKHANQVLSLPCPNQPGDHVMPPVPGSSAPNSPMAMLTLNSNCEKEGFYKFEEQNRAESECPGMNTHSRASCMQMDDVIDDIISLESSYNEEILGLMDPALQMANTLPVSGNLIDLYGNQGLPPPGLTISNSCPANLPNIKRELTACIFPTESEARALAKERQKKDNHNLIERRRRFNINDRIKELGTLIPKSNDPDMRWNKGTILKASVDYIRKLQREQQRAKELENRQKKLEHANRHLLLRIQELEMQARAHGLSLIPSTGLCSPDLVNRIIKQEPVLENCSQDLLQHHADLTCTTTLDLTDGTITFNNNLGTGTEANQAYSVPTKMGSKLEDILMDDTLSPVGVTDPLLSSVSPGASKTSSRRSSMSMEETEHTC
# T2 sequence (P41143 whole entry): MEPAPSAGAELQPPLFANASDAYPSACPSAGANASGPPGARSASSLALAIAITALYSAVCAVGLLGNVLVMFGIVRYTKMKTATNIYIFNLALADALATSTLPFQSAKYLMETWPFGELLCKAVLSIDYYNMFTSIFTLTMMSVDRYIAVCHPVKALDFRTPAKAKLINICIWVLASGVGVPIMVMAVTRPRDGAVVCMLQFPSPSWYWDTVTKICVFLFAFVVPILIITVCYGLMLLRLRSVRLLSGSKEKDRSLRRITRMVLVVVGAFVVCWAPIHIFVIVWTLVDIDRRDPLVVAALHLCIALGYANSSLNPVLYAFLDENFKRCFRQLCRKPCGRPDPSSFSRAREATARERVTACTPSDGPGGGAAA
# T3 sequence (P35372 whole entry): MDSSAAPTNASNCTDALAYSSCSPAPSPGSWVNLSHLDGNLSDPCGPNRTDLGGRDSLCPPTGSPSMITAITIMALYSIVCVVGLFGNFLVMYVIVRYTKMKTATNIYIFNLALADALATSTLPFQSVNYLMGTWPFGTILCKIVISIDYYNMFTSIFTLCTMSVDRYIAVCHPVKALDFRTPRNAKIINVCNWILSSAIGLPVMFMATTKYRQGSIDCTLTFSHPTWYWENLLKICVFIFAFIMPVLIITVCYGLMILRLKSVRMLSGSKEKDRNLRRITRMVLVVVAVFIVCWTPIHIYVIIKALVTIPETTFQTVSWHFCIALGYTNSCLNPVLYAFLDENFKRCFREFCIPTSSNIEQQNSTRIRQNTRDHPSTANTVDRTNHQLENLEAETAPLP
# T1 sequence (P41145 whole entry): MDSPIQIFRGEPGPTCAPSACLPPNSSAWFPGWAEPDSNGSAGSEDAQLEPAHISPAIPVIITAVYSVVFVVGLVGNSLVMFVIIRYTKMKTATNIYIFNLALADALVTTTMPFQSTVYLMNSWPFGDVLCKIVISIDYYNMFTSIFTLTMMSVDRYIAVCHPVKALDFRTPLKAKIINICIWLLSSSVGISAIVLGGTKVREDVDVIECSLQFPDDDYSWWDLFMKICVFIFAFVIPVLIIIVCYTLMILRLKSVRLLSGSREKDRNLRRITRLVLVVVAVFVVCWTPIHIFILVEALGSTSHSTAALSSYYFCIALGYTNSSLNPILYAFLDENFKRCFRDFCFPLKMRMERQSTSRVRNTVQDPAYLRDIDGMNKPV
# Sequence of G-protein coupled receptor 35 (Q9HC97 whole entry): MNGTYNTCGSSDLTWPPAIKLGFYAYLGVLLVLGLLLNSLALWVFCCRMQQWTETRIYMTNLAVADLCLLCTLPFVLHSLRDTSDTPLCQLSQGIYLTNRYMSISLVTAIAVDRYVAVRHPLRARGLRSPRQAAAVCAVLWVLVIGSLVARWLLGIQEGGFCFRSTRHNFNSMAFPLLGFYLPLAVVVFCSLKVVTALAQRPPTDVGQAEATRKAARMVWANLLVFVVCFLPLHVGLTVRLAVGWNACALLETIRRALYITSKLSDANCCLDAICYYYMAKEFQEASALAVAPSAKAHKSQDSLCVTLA
# Sequence of Dual specificity protein phosphatase 3 (P51452 whole entry, the tested form may be a part): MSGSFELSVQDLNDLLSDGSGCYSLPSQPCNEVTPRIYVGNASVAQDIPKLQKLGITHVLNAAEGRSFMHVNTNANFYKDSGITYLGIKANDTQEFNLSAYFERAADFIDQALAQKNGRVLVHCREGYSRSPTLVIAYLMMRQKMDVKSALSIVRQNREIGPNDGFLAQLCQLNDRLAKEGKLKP
# Sequence of Paired box protein Pax-8 (Q06710 whole entry): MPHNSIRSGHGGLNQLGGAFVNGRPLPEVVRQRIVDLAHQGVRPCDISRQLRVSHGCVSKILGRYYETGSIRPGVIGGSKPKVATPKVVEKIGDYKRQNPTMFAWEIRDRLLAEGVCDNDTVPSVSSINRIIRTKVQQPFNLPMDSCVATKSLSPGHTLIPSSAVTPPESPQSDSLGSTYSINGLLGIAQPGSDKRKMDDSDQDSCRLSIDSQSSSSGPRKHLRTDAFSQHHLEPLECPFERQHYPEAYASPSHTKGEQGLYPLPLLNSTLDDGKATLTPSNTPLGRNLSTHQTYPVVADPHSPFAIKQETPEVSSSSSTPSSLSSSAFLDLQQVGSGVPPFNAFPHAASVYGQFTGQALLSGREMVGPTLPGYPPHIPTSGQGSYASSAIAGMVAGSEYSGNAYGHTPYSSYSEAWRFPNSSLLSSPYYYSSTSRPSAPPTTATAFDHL
# Sequence of Melanocortin receptor 4 (P32245 whole entry): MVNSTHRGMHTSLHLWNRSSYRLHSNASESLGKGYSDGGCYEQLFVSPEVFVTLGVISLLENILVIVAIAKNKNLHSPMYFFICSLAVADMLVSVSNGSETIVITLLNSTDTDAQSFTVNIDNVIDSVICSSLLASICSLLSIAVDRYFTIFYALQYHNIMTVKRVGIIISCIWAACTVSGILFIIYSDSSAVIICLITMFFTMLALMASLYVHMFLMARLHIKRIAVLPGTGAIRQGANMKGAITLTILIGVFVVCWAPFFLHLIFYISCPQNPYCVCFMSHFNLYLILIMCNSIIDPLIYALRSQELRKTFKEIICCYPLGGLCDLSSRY
# Sequence of Beta-galactosidase (Q8VNN2 whole entry): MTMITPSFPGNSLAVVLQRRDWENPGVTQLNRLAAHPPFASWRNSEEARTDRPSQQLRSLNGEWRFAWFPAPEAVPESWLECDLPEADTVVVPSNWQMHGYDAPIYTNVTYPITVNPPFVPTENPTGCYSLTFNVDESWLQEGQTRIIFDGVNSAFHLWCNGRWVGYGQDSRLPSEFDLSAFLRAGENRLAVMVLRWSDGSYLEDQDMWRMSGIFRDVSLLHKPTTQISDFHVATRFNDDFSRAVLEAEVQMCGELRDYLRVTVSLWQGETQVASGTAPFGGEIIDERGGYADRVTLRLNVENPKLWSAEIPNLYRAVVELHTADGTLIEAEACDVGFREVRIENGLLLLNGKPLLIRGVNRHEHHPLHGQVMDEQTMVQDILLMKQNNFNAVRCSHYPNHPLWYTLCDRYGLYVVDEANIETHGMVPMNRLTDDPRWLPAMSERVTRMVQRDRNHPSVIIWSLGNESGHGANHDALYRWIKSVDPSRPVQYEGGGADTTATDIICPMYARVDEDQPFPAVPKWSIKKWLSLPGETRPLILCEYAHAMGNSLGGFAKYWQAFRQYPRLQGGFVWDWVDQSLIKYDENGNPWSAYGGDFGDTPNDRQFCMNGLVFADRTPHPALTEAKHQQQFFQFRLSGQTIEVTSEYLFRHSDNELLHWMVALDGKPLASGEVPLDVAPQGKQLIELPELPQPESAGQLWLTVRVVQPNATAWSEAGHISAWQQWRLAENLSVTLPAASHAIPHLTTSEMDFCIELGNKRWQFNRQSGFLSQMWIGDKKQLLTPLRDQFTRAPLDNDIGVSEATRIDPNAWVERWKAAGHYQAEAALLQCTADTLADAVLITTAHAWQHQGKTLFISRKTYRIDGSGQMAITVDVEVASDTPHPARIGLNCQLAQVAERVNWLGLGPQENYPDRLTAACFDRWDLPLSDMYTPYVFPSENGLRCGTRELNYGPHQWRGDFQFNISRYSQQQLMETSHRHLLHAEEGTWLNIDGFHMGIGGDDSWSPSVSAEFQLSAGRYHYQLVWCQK
# Sequence of G-protein coupled receptor 55 (Q9Y2T6 whole entry): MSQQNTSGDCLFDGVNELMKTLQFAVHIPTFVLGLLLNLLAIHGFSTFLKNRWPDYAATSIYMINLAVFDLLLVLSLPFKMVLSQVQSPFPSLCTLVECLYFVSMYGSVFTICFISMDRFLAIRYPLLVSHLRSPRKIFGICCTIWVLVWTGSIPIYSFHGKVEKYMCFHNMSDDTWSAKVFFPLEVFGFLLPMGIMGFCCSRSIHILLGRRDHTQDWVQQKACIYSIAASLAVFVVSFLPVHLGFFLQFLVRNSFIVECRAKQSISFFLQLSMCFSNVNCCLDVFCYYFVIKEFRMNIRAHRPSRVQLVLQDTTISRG
smiles,measurement,setting,value
COc1ccc(C(=O)CSc2nnc(-c3ccccn3)n2Cc2ccco2)cc1,EC50,[1],> 32 µM (inactive)
same,IC50,[2],> 32 µM (inactive)
same,EC50,[3],> 10 µM (inactive)
same,IC50,[4],> 32 µM (inactive)
same,IC50,Mu-type opioid receptor [5],> 32 µM (inactive)
same,EC50,Mu-type opioid receptor [6],> 32 µM (inactive)
same,EC50,[7],> 32 µM (inactive)
Clc1ccc(Cn2ncc3c(N4CCN(c5ccccc5)CC4)ncnc32)cc1,AC50,[8],33.9 µM (active)
same,EC50,Melanocortin receptor 4,> 89.1 µM (inactive)
same,AC50,Paired box protein Pax-8,8.65 µM (active)
same,IC50,[9],> 32 µM (not active)
same,IC50,[10],29.3 µM (inactive)
O=C(COc1ccc(/C=N/NC(=O)c2ccc(O)cc2)cc1)Nc1cccc([N+](=O)[O-])c1,IC50,[11],48.9 µM (inactive)
same,IC50,[12],8.06 µM (active)
same,IC50,[13],37.6 µM (active)
same,IC50,[14],64.7 µM (active)
same,IC50,[15],11.6 µM (active)
same,IC50,[16],15.8 µM (active)
same,IC50,[17],11.2 µM (active)
same,IC50,[18],49.1 µM (active)
same,IC50,[19],3.06 µM (active)
same,IC50,[20],2.98 µM (active)
same,IC50,[21],2.41 µM (active)
COc1ccc(Cn2c(SCc3ccc(Cl)c(Cl)c3)nnc2-c2ccccn2)cc1,EC50,[22],17.4 µM (inactive)
COc1cc(OC)cc(-c2nnc(NC(=O)c3ccc4c(c3)OCCO4)o2)c1,EC50,[23],> 32 µM (inactive)
same,IC50,[24],> 32 µM
same,EC50,Mu-type opioid receptor [25],> 32 µM (inactive)
same,IC50,[26],13.3 µM (active)
same,IC50,[27],> 32 µM (inactive)
same,EC50,Beta-galactosidase,> 31.5 µM (inactive)
CC(C)N=C(NS(=O)(=O)c1ccccc1)C(Cl)(Cl)Cl,CC50,Vero,11.5 µM (active)
same,AC50,[28],6.76 µM (active)
